Measured values: patent US9346798B2, “Dihydrobenzoxazine and tetrahydroquinoxaline sodium channel inhibitors” (AMGEN INC., priority 2012, dated 2016)

The compounds below were run against Nav 1.5 (Homo sapiens (Human), UniProt Q14524) (assay: Nav 1.5 in vitro assay, IonWorks Quattro (IWQ) population patch-clamp). Details: HEK 293 cells stably transfected with Nav 1.5; 26th pulse to -20 mV.
Chain of Nav 1.5 (Q14524 whole entry): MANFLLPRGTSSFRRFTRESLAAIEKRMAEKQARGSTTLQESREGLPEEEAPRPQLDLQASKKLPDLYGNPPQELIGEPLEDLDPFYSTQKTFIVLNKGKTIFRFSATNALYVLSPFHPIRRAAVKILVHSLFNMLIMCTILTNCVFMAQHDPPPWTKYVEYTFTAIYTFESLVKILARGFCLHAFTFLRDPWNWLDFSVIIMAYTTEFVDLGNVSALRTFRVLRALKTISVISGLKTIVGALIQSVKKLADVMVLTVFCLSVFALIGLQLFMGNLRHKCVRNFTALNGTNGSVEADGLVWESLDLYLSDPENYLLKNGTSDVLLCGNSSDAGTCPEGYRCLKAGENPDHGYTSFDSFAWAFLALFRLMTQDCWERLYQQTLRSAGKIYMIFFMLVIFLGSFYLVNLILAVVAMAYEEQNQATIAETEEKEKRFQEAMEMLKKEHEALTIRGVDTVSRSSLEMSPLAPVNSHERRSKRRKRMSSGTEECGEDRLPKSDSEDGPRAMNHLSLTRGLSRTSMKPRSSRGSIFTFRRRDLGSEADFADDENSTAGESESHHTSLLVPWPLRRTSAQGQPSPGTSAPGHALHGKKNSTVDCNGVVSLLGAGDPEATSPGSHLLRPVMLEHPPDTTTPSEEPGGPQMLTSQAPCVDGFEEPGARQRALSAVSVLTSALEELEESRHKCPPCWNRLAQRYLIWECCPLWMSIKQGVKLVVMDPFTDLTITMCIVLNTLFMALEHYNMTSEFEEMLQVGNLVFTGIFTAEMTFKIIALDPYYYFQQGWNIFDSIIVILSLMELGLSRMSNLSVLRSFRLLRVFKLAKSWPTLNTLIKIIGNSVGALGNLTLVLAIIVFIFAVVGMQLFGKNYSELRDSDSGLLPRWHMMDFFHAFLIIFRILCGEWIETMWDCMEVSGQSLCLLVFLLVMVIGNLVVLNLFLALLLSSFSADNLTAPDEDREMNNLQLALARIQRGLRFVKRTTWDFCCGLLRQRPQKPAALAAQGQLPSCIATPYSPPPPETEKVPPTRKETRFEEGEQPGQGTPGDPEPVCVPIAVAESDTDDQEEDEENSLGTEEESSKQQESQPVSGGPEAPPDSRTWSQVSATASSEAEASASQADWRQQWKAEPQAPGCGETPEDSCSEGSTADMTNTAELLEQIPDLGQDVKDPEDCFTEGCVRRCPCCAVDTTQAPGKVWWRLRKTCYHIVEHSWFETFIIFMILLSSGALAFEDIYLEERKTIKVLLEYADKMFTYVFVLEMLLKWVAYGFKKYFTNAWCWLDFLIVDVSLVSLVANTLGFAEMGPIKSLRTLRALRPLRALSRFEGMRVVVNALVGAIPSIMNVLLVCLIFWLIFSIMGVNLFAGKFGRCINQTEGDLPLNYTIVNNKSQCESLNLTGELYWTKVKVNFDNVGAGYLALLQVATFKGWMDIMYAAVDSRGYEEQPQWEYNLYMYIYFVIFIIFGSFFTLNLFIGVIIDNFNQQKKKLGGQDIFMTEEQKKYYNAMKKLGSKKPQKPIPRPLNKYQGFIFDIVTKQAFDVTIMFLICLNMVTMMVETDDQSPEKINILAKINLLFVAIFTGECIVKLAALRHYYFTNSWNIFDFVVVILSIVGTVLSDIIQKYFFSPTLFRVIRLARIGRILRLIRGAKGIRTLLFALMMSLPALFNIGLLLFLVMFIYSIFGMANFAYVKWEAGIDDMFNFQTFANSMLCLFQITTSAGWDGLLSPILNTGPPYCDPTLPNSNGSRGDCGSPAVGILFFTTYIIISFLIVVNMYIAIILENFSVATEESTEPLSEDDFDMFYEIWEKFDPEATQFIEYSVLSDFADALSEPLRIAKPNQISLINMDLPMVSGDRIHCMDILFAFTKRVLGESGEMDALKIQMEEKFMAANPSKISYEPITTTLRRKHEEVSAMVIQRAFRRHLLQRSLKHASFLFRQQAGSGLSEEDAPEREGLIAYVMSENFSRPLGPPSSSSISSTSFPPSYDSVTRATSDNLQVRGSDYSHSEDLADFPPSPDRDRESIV
Type: cell-based
Experimental: Nav 1.7 and Nav 1.5 In Vitro Assays
HEK 293 cells stably transfected with either Nav 1.7 or with Nav 1.5 were recorded in population patch-clamp mode with the IonWorks® Quattro automated electrophysiology system in accordance with the manufacturer's specifications (Molecular Devices, LLC, Sunnyvale, Calif.). Sodium channel currents were measured in response to a train of depolarizations that induced successively greater inactivation.
Cells were held at −110 mV for three seconds (Nav 1.7) or half a second (Nav 1.5) from a holding voltage of −15 mV, then put through a series of 26 pulses of 150 msec duration to −20 mV at a frequency of 5 Hz. Cells were then left unclamped for a period of 3 to 8 minutes while a single concentration of test compound was added. Cells were then reclamped and put through the same voltage protocol. Current at the end of the 26th pulse to −20 mV was subtracted from the peak current evoked by the 26th pulse to −20 mV to correct for leak current. Percent block was calculated for each concentration in duplicate, and IC50 curves were fitted to percent block as a function of concentration.
For `Cc1ccc(N2CCOc3cc(S(=O)(=O)Nc4nccs4)ccc32)cc1F` [Example 82, 4-(3-Fluoro-4-Methylphenyl)-N-(Thiazol-2-Yl)-3,4-Dihydro-2H-Benzo[B][1,4]Oxazine-7-Sulfonamide 2,2,2-Trifluoroacetate], the IC50 was > 10 µM. Compound `CC(C)(C)OC(=O)N1CC=C(c2cc(C(F)(F)F)ccc2N2CCOc3cc(S(=O)(=O)Nc4ncns4)ccc32)CC1` [Example 6, Tert-Butyl 4-(2-(7-(N-(1,2,4-Thiadiazol-5-Yl)Sulfamoyl)-2H-Benzo[B][1,4]Oxazin-4(3H)-Yl)-5-(Trifluoromethyl)Phenyl)-5,6-Dihydropyridine-1(2H)-Carboxylate] has an IC50 of 2.29 µM. For `O=S(=O)(Nc1nccs1)c1ccc2c(c1)OCCN2c1cccc2scnc12` [Example 72, 4-(Benzo[D]Thiazol-4-Yl)-N-(Thiazol-2-Yl)-3,4-Dihydro-2H-Benzo[B][1,4]Oxazine-7-Sulfonamide 2,2,2-Trifluoroacetate], the IC50 was > 10 µM. Compound `Cc1ccc(N2CCOc3cc(S(=O)(=O)Nc4nccs4)ccc32)cc1Cl` [Example 163, 4-(3-Chloro-4-Methylphenyl)-N-(Thiazol-2-Yl)-3,4-Dihydro-2H-Benzo[B][1,4]Oxazine-7-Sulfonamide 2,2,2-Trifluoroacetate] has an IC50 of 3.14 µM. In the case of `CCOc1cccc(N2CCOc3cc(S(=O)(=O)Nc4nccs4)ccc32)c1` [Example 162, 4-(3-Ethoxyphenyl)-N-(Thiazol-2-Yl)-3,4-Dihydro-2H-Benzo[B][1,4]Oxazine-7-Sulfonamide 2,2,2-Trifluoroacetate], the IC50 is reported as > 10 µM. For `N#Cc1ccc(F)c(N2CCOc3cc(S(=O)(=O)Nc4nccs4)ccc32)c1` [Example 164, 4-(5-Cyano-2-Fluorophenyl)-N-(Thiazol-2-Yl)-3,4-Dihydro-2H-Benzo[B][1,4]Oxazine-7-Sulfonamide 2,2,2-Trifluoroacetate], the IC50 was > 10 µM. For `O=S(=O)(Nc1nccs1)c1ccc2c(c1)OCCN2c1cc(F)ccc1F` [Example 83, 4-(2,5-Difluorophenyl)-N-(Thiazol-2-Yl)-3,4-Dihydro-2H-Benzo[B][1,4]Oxazine-7-Sulfonamide 2,2,2-Trifluoroacetate], the IC50 was > 10 µM. With `O=S(=O)(Nc1nccs1)c1ccc2c(c1)OCCN2c1cccc(Cl)c1Cl` [Example 171, 4-(2,3-Dichlorophenyl)-N-(Thiazol-2-Yl)-3,4-Dihydro-2H-Benzo[B][1,4]Oxazine-7-Sulfonamide 2,2,2-Trifluoroacetate] the IC50 was 6.44 µM. In the case of `O=S(=O)(Nc1nccs1)c1ccc2c(c1)OCCN2c1ncc(Cl)cc1Cl` [Example 121, 4-(3,5-Dichloropyridin-2-yl)-N-(thiazol-2-yl)-3,4-dihydro-2H-benzo[b][1,4]oxazine-7-sulfonamide], the IC50 is reported as > 10 µM. For `O=S(=O)(Nc1nccs1)c1ccc2c(c1)OCCN2c1ccc(-n2ccnc2)cc1` [Example 154, 4-(4-(1H-Imidazol-1-Yl)Phenyl)-N-(Thiazol-2-Yl)-3,4-Dihydro-2H-Benzo[B][1,4]Oxazine-7-Sulfonamide 2,2,2-Trifluoroacetate], the IC50 was > 10 µM.

These compounds were tested against Nav 1.7 (Homo sapiens (Human), UniProt Q15858) (assay: Nav 1.7 in vitro PX assay, PatchXpress whole cell voltage clamp). Details: HEK293; values marked *; 4.9 μM; HEK 293 cells stably transfected with human Nav1.7; read-out: Nav 1.7 PX percent inhibition at 4.9 μM.
Chain of Nav 1.7 (Q15858 whole entry): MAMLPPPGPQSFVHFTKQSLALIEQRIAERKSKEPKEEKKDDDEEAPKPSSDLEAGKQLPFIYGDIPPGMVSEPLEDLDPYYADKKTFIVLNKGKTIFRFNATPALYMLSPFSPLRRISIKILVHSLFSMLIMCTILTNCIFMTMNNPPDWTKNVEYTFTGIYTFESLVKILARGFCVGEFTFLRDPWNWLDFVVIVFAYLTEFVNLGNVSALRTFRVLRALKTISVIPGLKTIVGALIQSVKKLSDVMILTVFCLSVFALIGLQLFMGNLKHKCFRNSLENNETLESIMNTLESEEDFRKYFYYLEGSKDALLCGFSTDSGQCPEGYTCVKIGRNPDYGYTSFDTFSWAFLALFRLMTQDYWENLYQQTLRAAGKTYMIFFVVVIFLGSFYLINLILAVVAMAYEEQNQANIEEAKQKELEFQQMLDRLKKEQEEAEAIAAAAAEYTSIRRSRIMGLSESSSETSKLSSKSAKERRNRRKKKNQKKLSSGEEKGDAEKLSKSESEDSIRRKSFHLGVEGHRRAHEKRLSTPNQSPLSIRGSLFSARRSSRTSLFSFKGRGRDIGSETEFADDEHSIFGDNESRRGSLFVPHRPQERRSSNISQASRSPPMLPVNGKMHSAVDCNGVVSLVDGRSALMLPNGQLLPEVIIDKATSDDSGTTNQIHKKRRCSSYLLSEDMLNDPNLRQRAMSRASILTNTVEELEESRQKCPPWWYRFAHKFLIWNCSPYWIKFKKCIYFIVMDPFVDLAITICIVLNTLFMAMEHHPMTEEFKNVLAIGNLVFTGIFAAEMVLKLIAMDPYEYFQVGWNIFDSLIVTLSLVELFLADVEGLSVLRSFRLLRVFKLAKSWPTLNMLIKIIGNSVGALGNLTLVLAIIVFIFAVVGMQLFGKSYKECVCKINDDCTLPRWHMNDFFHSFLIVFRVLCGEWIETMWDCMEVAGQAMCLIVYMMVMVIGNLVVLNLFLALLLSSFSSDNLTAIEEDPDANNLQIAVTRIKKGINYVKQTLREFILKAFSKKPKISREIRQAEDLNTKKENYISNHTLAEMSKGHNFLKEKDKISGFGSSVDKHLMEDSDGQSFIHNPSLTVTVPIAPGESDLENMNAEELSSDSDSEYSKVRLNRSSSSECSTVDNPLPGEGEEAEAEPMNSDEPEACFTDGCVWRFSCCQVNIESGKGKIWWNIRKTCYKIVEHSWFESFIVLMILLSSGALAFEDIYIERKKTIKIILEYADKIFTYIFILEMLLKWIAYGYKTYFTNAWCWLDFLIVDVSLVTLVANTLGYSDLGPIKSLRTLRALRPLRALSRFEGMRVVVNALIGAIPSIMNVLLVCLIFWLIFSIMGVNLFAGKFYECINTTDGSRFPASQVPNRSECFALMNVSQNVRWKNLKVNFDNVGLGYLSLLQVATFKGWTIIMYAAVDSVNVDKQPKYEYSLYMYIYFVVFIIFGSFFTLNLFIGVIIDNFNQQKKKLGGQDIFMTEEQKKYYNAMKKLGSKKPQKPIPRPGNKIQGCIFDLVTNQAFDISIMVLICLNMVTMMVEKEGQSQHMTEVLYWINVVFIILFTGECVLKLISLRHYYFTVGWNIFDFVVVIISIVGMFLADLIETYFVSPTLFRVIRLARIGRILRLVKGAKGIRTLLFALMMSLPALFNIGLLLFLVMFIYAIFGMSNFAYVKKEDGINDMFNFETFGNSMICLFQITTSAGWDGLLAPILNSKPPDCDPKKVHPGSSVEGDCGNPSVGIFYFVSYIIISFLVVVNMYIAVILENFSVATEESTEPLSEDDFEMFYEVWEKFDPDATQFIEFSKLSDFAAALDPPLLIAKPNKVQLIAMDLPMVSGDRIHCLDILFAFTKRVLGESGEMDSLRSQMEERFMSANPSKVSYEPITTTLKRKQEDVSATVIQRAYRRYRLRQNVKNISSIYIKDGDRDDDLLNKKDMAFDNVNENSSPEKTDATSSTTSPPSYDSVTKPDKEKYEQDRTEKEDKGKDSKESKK
Type: cell-based
Experimental: Nav 1.7 In Vitro PX Assay
HEK 293 cells stably transfected with human Nav1.7 were recorded in whole cell voltage clamp mode with the PatchXpress automated electrophysiology system (Molecular Devices, LLC, Sunnyvale, Calif.). Compound effects were measured on a partially inactivated state of the sodium channel. Cells were clamped to a holding potential yielding 20 to 50% inactivation. To elicit sodium current, channels were activated by pulsing to −10 mV for 20 msec. This voltage protocol was repeated at a rate of 0.1 Hz throughout the experiment. A single concentration of test compound was applied to cells for a duration of 3 minutes. Peak sodium current was measured at the end of the compound addition period to determine percent inhibition. Three to five cells were tested per concentration, and IC50 curves were fitted to percent inhibition as a function of concentration.
With `COCC1CN(c2ccc(Cl)cc2C#N)c2ccc(S(=O)(=O)Nc3nccs3)cc2O1` (centres unmarked) [Example 251, 4-(4-chloro-2-cyanophenyl)-2-(methoxymethyl)-N-(thiazol-2-yl)-3,4-dihydro-2H-benzo[b][1,4]oxazine-7-sulfonamide] the inhibition at 4.9 µM was 27.8%.

Same assay, conditions: HEK 293 cells stably transfected with human Nav1.7; partially inactivated state (20 to 50% inactivation)
In the case of `O=S(=O)(Nc1nccs1)c1ccc2c(c1)OCCN2c1ccccc1Oc1ccncc1` [Example 260, 4-(2-(pyridin-4-yloxy)phenyl)-N-(thiazol-2-yl)-3,4-dihydro-2H-benzo[b][1,4]oxazine-7-sulfonamide], the IC50 is reported as 2.26 µM. With `NC(=O)COc1ccccc1N1CCOc2cc(S(=O)(=O)Nc3nccs3)ccc21` [Example 256, 2-(2-(7-(N-(thiazol-2-yl)sulfamoyl)-2H-benzo[b][1,4]oxazin-4(3H)-yl)phenoxy)acetamide] the IC50 was 2.22 µM. `COc1cc(C(F)(F)F)ccc1N1CCOc2cc(S(=O)(=O)Nc3nccs3)c(C#N)cc21` [Example 213, 6-Cyano-4-(2-Methoxy-4-(Trifluoromethyl)Phenyl)-N-(Thiazol-2-Yl)-3,4-Dihydro-2H-Benzo[B][1,4]Oxazine-7-Sulfonamide] showed an IC50 of 0.455 µM.
